Patent publication US20230331727A1, “METHOD FOR THE PRODUCTION OF LUMATEPERONE AND ITS SALTS” (EGIS GYOGYSZERGYAR ZRT., priority 2017, published 2023)

What was measured:
[1] = DSC measurement of the amorphous tosylate; assay type: physicochemical; settings: 30° C. - 190° C., 10° C./min, open Al crucible
Protocol: According to DSC measurements the amorphous form formed with p-toluenesulfonic acid according to the invention only transforms into the crystalline form A at a temperature of around 120° C. This supports that the amorphous form is suitable for the production of pharmaceutical preparations. In other words the advantage of the invention is that the amorphous salt according to the invention is morphologically uniform and stable. Therefore, it is not expected to transform into another form in the pharmaceutical preparation, and the quality of the preparations, primarily its dissolution characteristics are not expected to change. The morphological uniformity is supported by the x-ray powder diffractogram of the novel salt, it confirms its uniform crystal structure and enables the identification of the form even in a pharmaceutical preparation, thereby making it possible to monitor the quality at a later time, and differentiate it from other crystalline polymorphous forms. [table]

[2] = Storage stability of the amorphous salt by x-ray powder diffraction; assay type: physicochemical; settings: storage at room temperature in a sealed vessel; XRD curves after production and after storage essentially the same (FIG. 5)
From the text: The reason for this is that the general experience with amorphous active substances is that they are less chemically stable, also while amorphous substances are left to stand, optionally, during storage, or in the pharmaceutical preparation itself they partially or completely transform into a crystalline form or into a mixture of several crystalline forms forming a morphologically inhomogeneous (non-uniform) active substance. Furthermore the solubility of the unstable amorphous compound usually differs from the solubility of the crystalline active substance, a morphological change during storage may lead to a change in the effect of the preparation. However, contrary to the general expectations it was surprising to experience that the formula (III) amorphous lumateperone salt according to the invention, in which salt the molar ratio of the formula (I) lumateperone and p-toluenesulfonic acid is 1:1, remains stable for 3 months (see FIG. 5) without transforming into the very stable polymorph form A or other form. […] It can be seen that the two curves are essentially the same, no peaks characteristic of crystalline forms are apparent even after storage. […] [table] [table]

temperature at which the amorphous form transforms into the crystalline form A [1]: around 120 °C
remains stable without transforming into the very stable polymorph form A or other form [2]: 3 months
Compound: CN1CCN2c3c(cccc31)[C@@H]1CN(CCCC(=O)c3ccc(F)cc3)CC[C@@H]12.Cc1ccc(S(=O)(=O)O)cc1
